40 compounds from the Deep4Chem optical property database can be followed below.

The nature of the data set: solvent given as SMILES.
Where [1] appears, read: in c1ccc2c(c1)c1ccccc1n2-c1ccc(-c2ccc(-n3c4ccccc4c4ccccc43)cc2)cc1.

With `O=C1c2ccc(N(c3ccc(-c4ccccc4)cc3)c3ccc(-c4ccccc4)cc3)cc2C(=O)c2ccc(N(c3ccc(-c4ccccc4)cc3)c3ccc(-c4ccccc4)cc3)cc21`, the emission maximum reads like this: (in Cc1ccccc1) 629 nm; under setting [1], 603 nm.
Consider `N#Cc1ccc2c(c1)CCc1nc(-c3ccc([N+](=O)[O-])cc3)c3c(c1-2)CCc1cc(C#N)ccc1-3`, for which the emission maximum (in C1CCOC1) was 469 nm; the emission maximum (in CC#N) came out at 525 nm; the emission maximum (in CCCCCC) turned out to be 413 nm; the emission maximum (in CCOC(C)=O) is on record as 452 nm; the emission maximum (in CO) was determined as 475 nm; the emission maximum (in CS(C)=O) was 510 nm. The emission maximum reads like this: (in Cc1ccccc1) 443 nm; (in ClCCl) 475 nm.
Turning to `CCC1=C(C)C2=Cc3c4ccccc4c4n3[B-](c3ccc5ccc6cccc7ccc3c5c67)(Oc3ccccc3-4)[N+]2=C1C` (stereo not drawn), the emission maximum runs as follows: (in CC#N) 635 nm; (in CCCCCC) 638 nm; (in Cc1ccccc1) 642 nm; (in ClCCl) 640 nm.
With `CC1=CC(C)=[N+]2C1=C(c1ccccc1)c1c(C)cc(/C=C/c3ccc(N(C)C)cc3)n1[B-]2(F)F`, under “in CCOCC”, the emission maximum amounted to 638 nm.
In turn, `CCC(CC)COC1=CC2=C3c4cc(OCC(CC)CC)c(-c5ccccc5)n4[B-](F)(F)[n+]4c3n(c3cc(C(C)(C)C)ccc34)[B-](F)(F)[N+]2=C1c1ccccc1` displayed an emission maximum (in C1CCOC1) of 734 nm, an emission maximum (in CC#N) of 733 nm and an emission maximum (in ClCCl) of 736 nm.
For `CCN1C(=CC2=C([O-])C(=Cc3sc4ccccc4[n+]3CC)C2=O)Sc2ccccc21`, the emission maximum was determined as 663 nm (in CO) and 687 nm (in ClC(Cl)Cl).
Compound `CC(C)(C)[Si](C)(C)c1ccc([Si](C)(C)C(C)(C)C)c2ccccc12` had an emission maximum (in C1CCCCC1) of 335 nm.
Where the note is “in ClCCl”, `Clc1ccc(N2c3sc4ccccc4c3Sc3c2sc2ccccc32)cc1` returned an emission maximum of 546 nm.
Compound `COc1ccc(-c2csc(/C(C#N)=C/c3c(Cl)cccc3Cl)n2)cc1` registered an emission maximum (in CC#N) of 550 nm.
Same read-out and setting: with `COc1cc(C#Cc2ccccc2)c(C#Cc2ccccc2)cc1OC` the figure was 380 nm.
For the compound `N#Cc1cc(-n2c3ccccc3c3ccccc32)c(-n2c3ccccc3c3ccccc32)cc1C#N`, the emission maximum (in C1CCOC1) worked out at 501 nm, the emission maximum (in Cc1ccccc1) is on record as 473 nm and the emission maximum under setting [1] was determined as 474 nm.
With `CC(C)[Si](C#Cc1c2ccc(C(C)(C)C)cc2c(C#C[Si](C(C)C)(C(C)C)C(C)C)c2ccc(C(C)(C)C)cc12)(C(C)C)C(C)C`, the emission maximum (in Cc1ccccc1) is recorded as 461 nm.
For `COCCOCCOCCOc1cc(C=O)c(OCCOCCOCCOC)cc1C=O`, the emission maximum stood at 478 nm (in CC(C)(C)O); 479 nm (in CC(C)CO); 481 nm (in CC(C)O); 472 nm (in CCCCO); 471 nm (in CCCO); 465 nm (in CCO). Besides, the emission maximum is, setting by setting: (in CN(C)C=O) 464 nm; (in CNC=O) 450 nm; (in CO) 467 nm; (in NC=O) 458 nm; (in O) 495 nm.
In turn, `c1ccc(-c2nc(-c3ccccn3)sc2N(c2ccccc2)c2ccccc2)cc1` had an emission maximum (in ClC(Cl)Cl) of 482 nm.
Consider `CCOC(=O)COc1ccc(C(c2c(C)[nH]c3ccccc23)c2c(C)[nH]c3ccccc23)cc1`, for which the emission maximum amounted to 327 nm (in C1CCCCC1), 340 nm (in CC#N), 344 nm (in CO) and 350 nm (in O).
Under “in ClCCl”, `COc1cc2c3sc4ccccc4c3c3cncnc3c2c(OC)c1OC` showed an emission maximum of 426 nm.
On the same count and under the same terms, as for `CC1(C)c2ccccc2-c2cc3c(cc21)c1ccccc1n3-c1cccnc1`, the figure is 373 nm.
Take `CCC1=C(C)C(=O)n2c1cc1[nH]c(C(=O)OC(C)(C)C)c(C)c1c2=O`: the emission maximum came to 443 nm (in C1CCCCC1); 505 nm (in CO); 483 nm (in CS(C)=O); 453 nm (in ClC(Cl)Cl); 443 nm (in c1ccccc1).
Regarding `O=Cc1ccc(-c2ccc3c(c2)C(=O)c2cc(-c4ccc(C=O)cc4)ccc2-3)cc1`, for the setting “in C1CCOC1”, the emission maximum came to 371 nm.
On to `COC(=O)C(NC(=O)OC(C)(C)C)c1ccc2oc(-c3cc(OC)c(OC)cc3OC)nc2c1` (stereo not drawn), for which the emission maximum (in CC1CCCCC1) amounted to 357 nm, the emission maximum (in CC#N) is 383 nm and the emission maximum (in CO) is 389 nm.
As to `CCN(CC)c1ccc2cc(-c3nc4c5ccccc5c5ccccc5c4n3-c3ccc(C(C)(C)C)cc3)c(=O)oc2c1`, for the setting “in ClCCl”, the emission maximum stood at 492 nm.
`C1=Cc2nc1c(-c1cccs1)c1ccc([nH]1)c(-c1cccs1)c1nc(c(-c3cccs3)c3ccc([nH]3)c2-c2cccs2)C=C1`: the emission maximum stood at 665 nm (in CN(C)C=O) and 670 nm (in ClCCl).
Turning to `COC(=O)c1cc(=O)n(C)c2cc(-c3ccc(N4CCN(C)CC4)cc3)sc12`, the emission maximum runs as follows: (in CC#N) 587 nm; (in ClCCl) 550 nm.
Regarding `COCCOCCOCN1C(=O)c2ccc3c(-c4ccccc4)c4c5ccc6c7c(ccc(c(-c8ccccc8)c4c4ccc(c2c34)C1=O)c75)C(=O)N(COCCOCCOC)C6=O`, for the setting “in ClCCl”, the emission maximum is 695 nm.
Still for that read-out and setting: as for `CC(C)(C)c1ccc(-n2c(-c3ccc(-c4ccc(N(c5ccccc5)c5ccccc5)cc4)cc3)nc3c4ccccc4c4ccccc4c32)cc1`, the figure is 442 nm.
On to `O=Cc1cc(C=O)c2ccc3c(N4CCCCC4)cc(N4CCCCC4)c4ccc1c2c43`, for which the emission maximum was found to be 585 nm (in C1COCCO1); 602 nm (in CC#N); 598 nm (in CC(C)=O); 557 nm (in CCCCCC); 609 nm (in CCO); 587 nm (in CCOC(C)=O). Further, the emission maximum was 613 nm (in CO), 609 nm (in CS(C)=O), 582 nm (in Cc1ccccc1) and 602 nm (in ClCCl).
On to `CCCCCCCCN1c2ccc(C#Cc3ccc(C(F)(F)F)cc3)cc2Sc2cc(C=O)ccc21`, for which the emission maximum by setting is: (in C1CCOC1) 512 nm; (in CC#N) 534 nm; (in CCCCCC) 490 nm; (in CO) 500 nm; (in CS(C)=O) 539 nm; (in Cc1ccccc1) 509 nm. Under “in ClC(Cl)Cl”, this compound had an emission maximum of 535 nm.
For `CC(C)(C)c1ccc2c(c1)c1cc(C(C)(C)C)ccc1n2-c1ccc(C#Cc2ccc3c4ccc(C#Cc5ccc(C=C(C#N)C#N)cc5)cc4n(-c4ccc(C(F)(F)F)cc4)c3c2)cc1`, where the note is “in ClCCl”, the emission maximum was determined as 454 nm.
In the case of `F[B-]1(F)n2c(ccc2N2CCOCC2)C(c2ccccc2)=C2C=CC(N3CCOCC3)=[N+]21`, the emission maximum by setting is: (in CC#N) 600 nm; (in CCCCCC) 595 nm; (in CCOC(C)=O) 597 nm; (in CO) 594 nm; (in ClCCl) 598 nm.
Take `Cc1cccc2cc(-c3cc4cccc(C)c4oc3=O)oc12`: the emission maximum was determined as 451 nm (in CC#N); 436 nm (in CCOC(C)=O); 456 nm (in CS(C)=O); 436 nm (in Cc1ccccc1); 488 nm (in O).
Under “in ClCCl”, `O=[N+]([O-])c1ccc2c(ccc3[n+]2[B-](F)(F)n2c-3cc3c4ccccc4c4ccccc4c32)c1` came in with an emission maximum of 631 nm.
Take `CCCN1c2ccccc2Sc2cc(/C=C\c3cc(=O)oc4cc(NC(=O)OCC)ccc34)ccc21`: the emission maximum (in ClC(Cl)Cl) is 635 nm.
Take `Cc1ccc(C2=C3C=CC(C#Cc4ccccc4)=[N+]3[B-](F)(F)n3c(C#Cc4ccccc4)ccc32)cc1`: the emission maximum is reported as 626 nm (in C1CCCCC1); 625 nm (in C1CCOC1); 626 nm (in C1COCCO1); 621 nm (in CCOC(C)=O); 622 nm (in CO); 629 nm (in Cc1ccccc1). Besides, the emission maximum reads like this: (in ClC(Cl)Cl) 628 nm; (in ClCCl) 628 nm.
In the case of `COc1ccc(C2=N/C(=C\c3ccccc3)C(=O)N2)cc1OC`, for the setting “in C1COCCO1”, the emission maximum is given as 455 nm.
On to `CN1C(=CC2=C([O-])C(=Cc3oc4ccccc4[n+]3C)C2=O)C(C)(C)c2ccccc21`, for which the emission maximum (in ClC(Cl)Cl) was determined as 619 nm.
Regarding `CCCCCCc1ccc2c(/C=N/c3cc(/N=C/c4c(O)ccc5cc(CCCCCC)ccc45)cc(/N=C/c4c(O)ccc5cc(CCCCCC)ccc45)c3)c(O)ccc2c1`, the emission maximum came to 509 nm (in C1CCOC1), 507 nm (in CC#N), 507 nm (in Cc1ccccc1) and 511 nm (in ClCCl).
`O=[N+]([O-])c1ccc([N+]2=Cc3ccc4c5c(ccc4c3O[B-]2(c2ccccc2)c2ccccc2)C=[N+](c2ccc([N+](=O)[O-])cc2)[B-](c2ccccc2)(c2ccccc2)O5)cc1`: the emission maximum reads like this: (in Cc1ccccc1) 643 nm; (in ClCCl) 642 nm.
`Cc1cc2nc3[nH]c(=O)n(C)c(=O)c3nc2cc1C`: where the note is “in CC#N”, the emission maximum is 436 nm.
Consider `CCCCCCCCN1c2ccccc2Sc2cc(/C=C/c3ccc(N(c4ccc(/C=C/c5ccc6c(c5)Sc5ccccc5N6CCCCCCCC)cc4)c4ccc(/C=C/c5ccc(/C=C/c6ccc(N(c7ccc(/C=C/c8ccc(N(c9ccccc9)c9ccccc9)cc8)cc7)c7ccc(/C=C/c8ccc(N(c9ccccc9)c9ccccc9)cc8)cc7)cc6)c6nsnc56)cc4)cc3)ccc21`, for which the emission maximum is, setting by setting: (in C1CCOC1) 653 nm; (in CCOC(C)=O) 646 nm; (in CN(C)C=O) 749 nm; (in Cc1ccccc1) 620 nm; (in ClC(Cl)Cl) 668 nm; (in ClCCl) 708 nm.
As to `CCOC(=O)CN1C(=O)C2=C(c3ccc(N4CCCCC4)cc3)N(CC(=O)OCC)C(=O)C2=C1c1ccc(N2CCCCC2)cc1`, the emission maximum by setting is: (in CC#N) 590 nm; (in CS(C)=O) 603 nm; (in Cc1ccccc1) 575 nm.
